The source of these data is article PMC8617681 (Pharmaceuticals, 2021).

For data set [1], the target named is T1, human OATP1B1 (Homo sapiens, UniProt Q9Y6L6).
T1 construct: Werner Siegmund and Dr. Markus Keiser (University of Greifswald); host or cells: HEK293
T1 sequence (Q9Y6L6 1-691): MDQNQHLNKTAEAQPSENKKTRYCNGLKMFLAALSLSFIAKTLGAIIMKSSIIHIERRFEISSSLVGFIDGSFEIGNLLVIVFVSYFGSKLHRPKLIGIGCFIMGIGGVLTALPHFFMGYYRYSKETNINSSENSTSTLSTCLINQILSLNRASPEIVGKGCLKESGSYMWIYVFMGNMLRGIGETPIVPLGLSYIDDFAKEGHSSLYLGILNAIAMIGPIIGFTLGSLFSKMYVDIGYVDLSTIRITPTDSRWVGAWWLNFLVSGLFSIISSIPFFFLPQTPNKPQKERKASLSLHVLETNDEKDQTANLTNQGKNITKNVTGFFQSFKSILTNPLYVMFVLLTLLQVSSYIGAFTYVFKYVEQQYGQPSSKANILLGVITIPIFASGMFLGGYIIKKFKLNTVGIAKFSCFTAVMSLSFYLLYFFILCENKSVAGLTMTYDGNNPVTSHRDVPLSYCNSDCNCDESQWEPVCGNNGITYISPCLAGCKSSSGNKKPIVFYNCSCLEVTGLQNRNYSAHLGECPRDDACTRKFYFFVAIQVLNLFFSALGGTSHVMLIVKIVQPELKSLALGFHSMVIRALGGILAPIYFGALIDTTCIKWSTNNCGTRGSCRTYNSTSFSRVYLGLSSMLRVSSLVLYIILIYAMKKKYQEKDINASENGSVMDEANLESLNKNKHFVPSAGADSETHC
The data set is described as follows: Cellular uptake in OATP1B1-overexpressing HEK293 cells. It is filed as in vitro ADME. As to conditions: 5 µM, 2.5 min incubation, HEK293 OATP1B1. The procedure:
(§1) HEK293 cells, vector-transfected or human (h)SLCO1A2, hSLCO1B1 or hSLCO1B3 cDNA-transfected were kind gifts from Prof. Werner Siegmund and Dr. Markus Keiser (University of Greifswald, Greifswald, Germany). All the HEK293 cell lines were maintained in DMEM supplemented with 10% (v/v) FBS, 1% penicillin–streptomycin mix at 37 °C in 5% (v/v) CO2 and 500 μg/mL G418. Cells were first seeded in 12-well plates [coated with 50 mg/L poly (l-lysine) and 50 mg/L poly (l-ornithine)] at a density of 1.0 × 10^5 cells/well. For the uptake study, in order to induce the expression of OATP transporters, the cell culture medium was replaced with culture medium supplemented with 5 mM sodium butyrate 24 h before performing the uptake assay.
(§2) The uptake transport study was performed as described previously. […] The Krebs–Henseleit solution was prepared from Krebs–Henseleit-buffer modified powder and supplemented with 25 mM NaHCO3 and 2.5 mM CaCl2 adjusted to pH 6.4 with 1 M HCL. At 2.5 min, the incubation buffer was removed, and uptake was terminated by adding 1 mL of ice-cold Krebs–Henseleit buffer, followed by two times washing with 1 mL of ice-cold Krebs–Henseleit buffer. […] The cellular protein amount was determined by the Bradford method using 10 μL of the cell lysates with bovine serum albumin as a standard.

For data set [2], the target named is T2, human OATP1B3 (Homo sapiens, UniProt Q9NPD5).
T2 construct: Werner Siegmund and Dr. Markus Keiser (University of Greifswald); host or cells: HEK293
T2 sequence (Q9NPD5 1-702): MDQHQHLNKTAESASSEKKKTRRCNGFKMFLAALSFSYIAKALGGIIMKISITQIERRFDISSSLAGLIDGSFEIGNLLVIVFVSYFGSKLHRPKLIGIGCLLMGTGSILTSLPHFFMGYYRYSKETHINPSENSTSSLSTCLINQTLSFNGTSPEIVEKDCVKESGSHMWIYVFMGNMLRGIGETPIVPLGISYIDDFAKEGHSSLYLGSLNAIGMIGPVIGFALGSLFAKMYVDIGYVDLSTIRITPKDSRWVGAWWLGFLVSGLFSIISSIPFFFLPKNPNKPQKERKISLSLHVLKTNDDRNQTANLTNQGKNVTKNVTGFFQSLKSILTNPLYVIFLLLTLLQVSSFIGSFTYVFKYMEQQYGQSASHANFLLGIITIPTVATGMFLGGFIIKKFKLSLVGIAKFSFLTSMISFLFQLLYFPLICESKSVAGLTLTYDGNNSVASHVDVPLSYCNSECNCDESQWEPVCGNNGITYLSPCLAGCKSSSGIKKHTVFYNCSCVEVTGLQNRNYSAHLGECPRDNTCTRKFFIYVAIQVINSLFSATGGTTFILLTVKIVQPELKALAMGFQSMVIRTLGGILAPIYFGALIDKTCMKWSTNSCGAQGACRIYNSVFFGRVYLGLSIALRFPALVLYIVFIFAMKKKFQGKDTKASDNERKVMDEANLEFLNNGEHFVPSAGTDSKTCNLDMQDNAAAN
As to the kind of experiment: Cellular uptake in OATP1B3-overexpressing HEK293 cells. The format is in vitro ADME. As to conditions: 5 µM, 2.5 min incubation, HEK293 OATP1B3. On the procedure: as §1, §2

Data set [3] relates to CNS metastasis. As to conditions: 11 patients with measurable CNS lesions, cited from earlier work.
For data set [4], the system named is RET-mutant medullary thyroid cancer. As to conditions: clinical phase 1 study; cited from earlier work.

As for `COc1ccc(CN2C3CC2CN(c2ccc(-c4cc(OCC(C)(C)O)cn5ncc(C#N)c45)cn2)C3)cn1` [selpercatinib], in data set [1], the “uptake compared to vector control cells” value is “did not observe any significant increase in the uptake”. The “uptake compared to vector control cells” value in data set [2] is listed as “did not observe any significant increase in the uptake”. In addition, in data set [3] (independent review), the “percentage with an objective intracranial response” value is 91%. Further, in data set [3], the “complete responses (intracranial)” value was 27% and the “partial responses (intracranial)” value was 64%. Further, the overall response rate in data set [4] is on record as 45%.
